{"source": "paper PMC4920590", "about": "“GPR142 Controls Tryptophan-Induced Insulin and Incretin Hormone Secretion to Improve Glucose Metabolism” (PLoS ONE, 2016)", "key": {"[1]": {"target": "T1, human GPR142 (Homo sapiens, UniProt Q7Z601)", "T1 construct": "expressed in transfected cells", "T1 sequence (Q7Z601 1-374 isoform Q7Z601-2)": "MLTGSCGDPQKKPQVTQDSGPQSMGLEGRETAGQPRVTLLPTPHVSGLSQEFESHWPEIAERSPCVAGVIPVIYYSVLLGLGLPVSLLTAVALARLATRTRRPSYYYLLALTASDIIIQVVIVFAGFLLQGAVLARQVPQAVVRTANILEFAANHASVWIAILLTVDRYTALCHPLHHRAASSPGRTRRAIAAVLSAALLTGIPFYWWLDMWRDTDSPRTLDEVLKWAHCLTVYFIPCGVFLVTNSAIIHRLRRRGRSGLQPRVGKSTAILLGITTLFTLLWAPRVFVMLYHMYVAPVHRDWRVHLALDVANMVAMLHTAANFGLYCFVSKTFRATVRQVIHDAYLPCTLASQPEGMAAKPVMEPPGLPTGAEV", "test": "IP-1 accumulation assay in HEK293 cells stably expressing human GPR142", "format": "cell-based", "conditions": "for Emax: HEK293, relative efficacy normalized to maximal response of L-Tryptophan (100%), read-out: HEK293-hGPR142 Emax; for EC50: IP-1 accumulation, 1 hour, 170 nM to 30 mM, read-out: HEK293-hGPR142 EC50; for HEK293-hGPR142 EC50 (Emax): activity call, tested 170 nM to 30 mM; for IP-1 accumulation in HEK-hGPR142 cells: Fig 1A, 1B", "protocol": "(§1) HEK293 cells obtained from ATCC were used to generate cell lines stably expressing human GPR142 or mouse Gpr142 by transfecting cells with pcDNA3.1 expression vectors containing each cDNA. Cells expanded from single clones were maintained in DMEM containing 10% fetal bovine serum (FBS) and 800 μg/ml G418. Untransfected control HEK293 cells were maintained in DMEM containing 10% FBS. Cells were plated in 384 well plates at 5000 cells per well and allowed 18 hours for attachment. After addition of compounds, cells were incubated for 1 hour. IP-1 measurements were performed using an HTRF assay kit (Cisbio) according to manufacturer’s protocol using assay buffer containing 1 × HBSS (Hank’s Balanced Salt Solution, +Ca, +Mg), 0.1% bovine serum albumin (BSA), 50 mM LiCl and 20 mM HEPES (4-(2-hydroxyethyl)-1-piperazineethanesulfonic acid), pH 7.2. The reaction was stopped by addition of IP1-d2 followed by cryptate solution and the plates were incubated at 25°C for 1 hour. Fluorescence was read in an Envision instrument at 665 nm and 620 nm. The ratio of 665 nm/620 nm was calculated and converted to IP-1 levels using a standard curve method. The data was fit to 4-parameter fit logistics to determine EC50 values."}, "[2]": {"target": "T2, mouse GPR142 (Mus musculus, UniProt Q7TQN9)", "T2 sequence (Q7TQN9 67-365 limits assumed)": "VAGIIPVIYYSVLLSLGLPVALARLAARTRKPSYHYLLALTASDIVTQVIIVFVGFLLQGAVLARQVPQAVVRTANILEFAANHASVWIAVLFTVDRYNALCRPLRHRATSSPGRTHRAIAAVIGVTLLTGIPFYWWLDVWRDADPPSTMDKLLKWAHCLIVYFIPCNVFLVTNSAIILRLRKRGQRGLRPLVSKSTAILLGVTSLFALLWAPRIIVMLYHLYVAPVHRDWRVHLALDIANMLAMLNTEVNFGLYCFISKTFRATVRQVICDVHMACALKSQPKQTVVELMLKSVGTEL", "test": "IP-1 accumulation assay in HEK293 cells stably expressing mouse Gpr142", "format": "cell-based", "conditions": "for Emax: HEK293, relative efficacy normalized to maximal response of L-Tryptophan (100%), read-out: HEK293-mGPR142 Emax; for EC50: IP-1 accumulation, 1 hour, 170 nM to 30 mM, read-out: HEK293-mGPR142 EC50", "protocol": "as §1"}, "[3]": {"test": "Plasma insulin and incretin hormone levels after oral dosing in mice", "format": "in vivo, mouse", "conditions": "for GIP release in Gpr142 KO mice / insulin release in Gpr142 KO mice / plasma GLP-1 in Gpr142 KO mice: 500 mg/kg p.o., 10 minutes after dosing, vs WT", "protocol": "(§2) Mice were fasted overnight and allowed free access to water. […] Tail blood glucose levels were measured at indicated time points using handheld glucometers. For incretin hormone measurements, blood was collected via cardiac bleeds into EDTA-tubes containing DPP-4 inhibitor (Millipore) and protease inhibitor cocktail (Thermo Fisher). For insulin measurements during GTT, blood was collected from the tail.\nImmunoassays were used to measure total GIP (Millipore, ELISA), total GLP-1, and insulin (Meso Scale Discovery). Enzymatic assays were used to measure TG, beta-hydroxybutarate (Sigma-Aldrich), and total cholesterol (Thermo Fisher). HDL-cholesterol was determined in the supernatant after removal of LDL/vLDL-cholesterol by a precipitation reagent (Sigma-Aldrich); non-HDL-cholesterol was determined by subtracting HDL from total cholesterol. Free fatty acids were measured by GC-MS."}, "[4]": {"system": "murine pancreatic islets", "test": "Insulin secretion in isolated murine pancreatic islets (WT and Gpr142 KO)", "format": "cell-based, mouse", "conditions": "11.1 mM glucose, 1 hour", "protocol": "Secretion was stopped by refrigerating the plates at 4°C for 3 minutes. Supernatant was removed from the wells and assayed for insulin levels using the MA6000 Mouse/Rat Insulin Kit (Meso Scale Discovery)."}, "[5]": {"test": "Glucose tolerance test (IPGTT/OGTT) after oral dosing in mice", "format": "in vivo, mouse", "conditions": "for glucose excursion during IPGTT in Gpr142 KO mice / glucose excursion during IPGTT in WT mice: 500 mg/kg p.o. 15 minutes prior to glucose 2 g/kg i.p.", "protocol": "as §2"}, "[6]": {"system": "human pancreatic islets", "test": "Insulin secretion in isolated human pancreatic islets", "format": "cell-based", "conditions": "11 mM glucose, 1 hour, non-diabetic donor", "source_text": "Human pancreatic islets were purchased from Prodo Labs at the Scharp-Lacy Research Institute (Irvine, CA, www.prodolabs.com) through the Integrated Islet Distribution Program in accordance with internal review board (IRB) ethical guidelines for use of human tissue. Islets were isolated at Prodo Labs from human pancreata from listed cadaver organ donors that were refused for primary human pancreas transplantation or isolated islets transplantion into listed diabetic recipients. […] The next day day islets were incubated for 30 min in EBSS buffer containing 0.1% BSA and 3 mM glucose. […] Islets were cultured for 60 min at 37°C. The incubation was stopped by chilling the samples on ice. The culture media was removed and stored at -20°C until its insulin concentration was measured. Insulin was measured using a custom built immunoassay (Meso Scale Discovery)."}, "[7]": {"system": "untransfected control HEK293 cells", "test": "IP-1 accumulation in untransfected control HEK293 cells", "format": "cell-based", "conditions": "Fig 1B", "protocol": "as §1"}, "[8]": {"design": "method as in PMID 25787200", "conditions": "humans, phase III study; cited from earlier work"}, "[9]": {"system": "Free Fatty Acid Receptor 1 (FFAR1, GPR40)", "design": "method as in PMID 21752941", "conditions": "preclinical models; cited from earlier work"}, "[10]": {"conditions": "150 or 500 mg/kg p.o., overnight fasted normal C57 male mice"}, "[11]": {"conditions": "500 mg/kg p.o. 15 minutes prior to glucose 2 g/kg p.o."}}}
{"smiles": "Nc1ccccc1C(=O)C[C@H](N)C(=O)O", "note": "[L-Kynurenine]", "values": [{"measurement": "Emax", "setting": "[1]", "result": 18, "unit": "%"}, {"measurement": "EC50", "setting": "[1]", "result": 12, "unit": "mM"}]}
{"smiles": "CC(C)C[C@H](N)C(=O)O", "note": "[L-Leucine]", "values": [{"measurement": "HEK293-hGPR142 EC50 (Emax)", "setting": "[1]", "result": "Inactive"}]}
{"smiles": "NCCCC[C@H](N)C(=O)O", "note": "[L-Lysine]", "values": [{"measurement": "Emax", "setting": "[1]", "result": 20, "unit": "%"}, {"measurement": "EC50", "setting": "[1]", "result": 16, "unit": "mM"}]}
{"smiles": "CSCC[C@H](N)C(=O)O", "note": "[L-Methionine]", "values": [{"measurement": "HEK293-hGPR142 EC50 (Emax)", "setting": "[1]", "result": "Inactive"}]}
{"smiles": "N[C@@H](Cc1ccccc1)C(=O)O", "note": "[L-Phenylalanine]", "values": [{"measurement": "Emax", "setting": "[2]", "result": 92, "unit": "%"}, {"measurement": "potency on mouse GPR142 relative to L-Trp (fold less potent)", "setting": "[2]; HEK293 cell-based IP-1 assay", "result": "4 to 5", "unit": "fold"}, {"measurement": "EC50", "setting": "[2]", "result": 2.8, "unit": "mM"}, {"measurement": "GIP release in Gpr142 KO mice", "setting": "[3]", "result": "blunted"}, {"measurement": "insulin release in Gpr142 KO mice", "setting": "[3]", "result": "blunted"}, {"measurement": "plasma GLP-1 in Gpr142 KO mice", "setting": "[3]", "result": "increased GLP-1 in KO mice to a similar extent as in WT"}, {"measurement": "IP-1 accumulation in HEK-hGPR142 cells", "setting": "[1]", "result": "has an effect in this assay at concentrations comparable to that of L-Trp"}, {"measurement": "Emax", "setting": "[1]", "result": 96, "unit": "%"}, {"measurement": "EC50", "setting": "[1]", "result": 3.5, "unit": "mM"}, {"measurement": "insulin secretion in Gpr142 KO islets compared with WT islets", "setting": "[4]", "result": "not significantly different"}, {"measurement": "insulin secretion in WT murine islets", "setting": "[4]", "result": "more modest"}, {"measurement": "glucose excursion during IPGTT in Gpr142 KO mice", "setting": "[5]", "result": "clearly present"}, {"measurement": "glucose excursion during IPGTT in WT mice", "setting": "[5]", "result": "clearly present"}]}
{"smiles": "O=C(O)[C@@H]1CCCN1", "note": "[L-Proline]", "values": [{"measurement": "HEK293-hGPR142 EC50 (Emax)", "setting": "[1]", "result": "Inactive"}]}
{"smiles": "N[C@@H](CO)C(=O)O", "note": "[L-Serine]", "values": [{"measurement": "HEK293-hGPR142 EC50 (Emax)", "setting": "[1]", "result": "Inactive"}]}
{"smiles": "C[C@@H](O)[C@H](N)C(=O)O", "note": "[L-Threonine]", "values": [{"measurement": "HEK293-hGPR142 EC50 (Emax)", "setting": "[1]", "result": "Inactive"}]}
{"smiles": "N[C@@H](Cc1c[nH]c2ccccc12)C(=O)O", "note": "[L-Tryptophan]", "values": [{"measurement": "insulin secretion in human primary islets", "setting": "[6]", "result": "robustly stimulated insulin secretion"}, {"measurement": "IP-1 accumulation in untransfected control HEK293 cells", "setting": "[7]", "result": "had no effect"}, {"measurement": "IP-1 accumulation in HEK-mGPR142 cells", "setting": "[2]", "result": "stimulated IP-1 accumulation"}, {"measurement": "Emax", "setting": "[2]", "result": 100, "unit": "%"}, {"measurement": "EC50", "setting": "[2]", "result": 0.62, "unit": "mM"}, {"measurement": "GIP release in Gpr142 KO mice", "setting": "[3]", "result": "no L-Trp-dependent release"}, {"measurement": "insulin release in Gpr142 KO mice", "setting": "[3]", "result": "no L-Trp-dependent release"}, {"measurement": "plasma GLP-1 in Gpr142 KO mice", "setting": "[3]", "result": "increased GLP-1 in KO mice to a similar extent as in WT"}, {"measurement": "time of peak plasma insulin, GIP and GLP-1 concentrations after dosing", "setting": "[3]; 150 or 500 mg/kg p.o., normal C57 male mice", "result": "5 to 10", "unit": "min"}, {"measurement": "plasma GIP level", "setting": "[3]; [10]", "result": "rapidly and dose-dependently increased"}, {"measurement": "plasma GLP-1 level", "setting": "[3]; [10]", "result": "rapidly and dose-dependently increased"}, {"measurement": "plasma insulin level", "setting": "[3]; [10]", "result": "rapidly and dose-dependently increased"}, {"measurement": "IP-1 accumulation in HEK-hGPR142 cells", "setting": "[1]", "result": "stimulated IP-1 accumulation"}, {"measurement": "Emax", "setting": "[1]", "result": 100, "unit": "%"}, {"measurement": "EC50", "setting": "[1]", "result": 2.1, "unit": "mM"}, {"measurement": "insulin secretion in Gpr142 KO islets compared with WT islets", "setting": "[4]", "result": "significantly blunted"}, {"measurement": "insulin secretion in WT murine islets", "setting": "[4]", "result": "dose-dependently stimulated the release of insulin"}, {"measurement": "glucose excursion during IPGTT in Gpr142 KO mice", "setting": "[5]", "result": "no significant effect"}, {"measurement": "glucose excursion during IPGTT in WT mice", "setting": "[5]", "result": "suppressed glucose excursion"}, {"measurement": "glucose excursion during OGTT in Gpr142 KO mice", "setting": "[5]; [11]", "result": "no significant effect"}, {"measurement": "glucose excursion during OGTT in WT mice", "setting": "[5]; [11]", "result": "suppressed glucose excursion"}]}
{"smiles": "N[C@@H](Cc1ccc(O)cc1)C(=O)O", "note": "[L-Tyrosine]", "values": [{"measurement": "Emax", "setting": "[1]", "result": 14, "unit": "%"}, {"measurement": "EC50", "setting": "[1]", "result": 16, "unit": "mM"}]}
{"smiles": "CC(C)[C@H](N)C(=O)O", "note": "[L-Valine]", "values": [{"measurement": "HEK293-hGPR142 EC50 (Emax)", "setting": "[1]", "result": "Inactive"}]}
{"smiles": "Cc1cc(OCCCS(C)(=O)=O)cc(C)c1-c1cccc(COc2ccc3c(c2)OC[C@H]3CC(=O)O)c1", "note": "[TAK-875]", "values": [{"measurement": "glycemic control", "setting": "[8]", "result": "improve glycemic control"}, {"measurement": "glucose-dependent insulin secretion", "setting": "[9]", "result": "stimulate glucose-dependent insulin secretion"}]}
{"smiles": "NCCc1c[nH]c2ccccc12", "note": "[Trytamine]", "values": [{"measurement": "HEK293-hGPR142 EC50 (Emax)", "setting": "[1]", "result": "Inactive"}]}
